Source: patent US8236490B2, “Screening method for compounds that reduce ER stress” (EM Biotecnologia S.A., priority 2007, dated 2012)

Test system: DGI-TAUP301L cells (ER stress induced by mutant TAU-P301L protein)
Assay: ER stress reporter (KAR2 UPRE-GFP) screening assay in DGI-TAUP301L yeast cells; fluorescence normalised to cell density
Format: cell-based, Saccharomyces cerevisiae
Settings: 2% galactose, 2 days at 30° C.
Protocol: Screening was conducted with a DGI-TAUP301L yeast cell expressing the mutant TAU-P301L protein under the control of GAL1 promoter and containing the ER stress sensor reporter plasmid with GFP as reporter, described above in the “Construction of the ER sensor reporter plasmid” section. […] The resulting fluorescent signal was normalised to cell density and the normalised fluorescence was used as a direct measure of ER stress level in the cells.
A commercial library containing 50 080 small molecules was screened along with 5 dipeptide molecules from an academic collaboration and 208 extracts from a proprietary natural extract collection. Active compounds, with the potential to modulate the deleterious effects of TAU-P301L expression, were identified by their ability to decrease normalised fluorescence, without influencing growth. Growth was determined by measuring optical density (OD) of a culture.
DGI-TAUP301L cells were dispensed into 96-well plates on minimum medium containing 2% galactose to fully express the mutant protein, together with 10 μM candidate compound. All liquid handing steps were performed using a Janus Automated Workstation (Perkin Elmer). Plates were incubated for 2 days at 30° C. under shaking in a Liconic STX40 Automated Incubator. Growth and fluorescence were monitored with a Victor 3V microplate reader (PE). […]
(§1) DGI-TAUP301L cells were pre-grown on a mixture of 2% galactose until reaching early exponential phase (OD=1-2). […] Growth and fluorescence were monitored for 2 days at 30° C. under agitation. […]
as §1, §1, §1

C[N+](C)(C)CCO [Choline, choline]
reduction of ER stress (0.4 M choline): 35%

C[S+](C)[O-] [DMSO]
reduction of ER stress (2% DMSO): 35%

O=C(/C=C/c1ccccc1)NC(NC(=S)Nc1cccc2cccnc12)C(Cl)(Cl)Cl (stereo not drawn) [salubrinal]
reduction of ER stress signal (100 μM salubrinal): ~50%
